Tested on: stable CF patients
Experiment: Phase 2 study: pulmonary function (FEV1, FVC, FEF 25-75)
Type: in vivo, human
Set-up: FEF 25-75, Median / FEV1, Day 14, Mean / FEF 25-75, Mean: unit not given here; FEV1, Day 1, Mean / FEV1, Day 1, Median / FEV1, Day 14, Median / FEV1, Day 28, Mean / FEV1, Day 28, Median: unit: L
Conditions: for Increase in FEF 25-75 / Increase in FEV1: median Day 1 to Day 28; for FEV1, Day 1, Mean / FEV1, Day 1, Median / FEV1, Day 14, Mean / FEV1, Day 14, Median / FEV1, Day 28, Mean / FEV1, Day 28, Median / FEV1, Percent Change from Baseline to Day 14, Mean / FEV1, Percent Change from Baseline to Day 14, Median / FEV1, Percent Change from Baseline to Day 28, Mean / FEV1, Percent Change from Baseline to Day 28, Median / % predicted FEV1, Mean / % predicted FEV1, Median: MITT population
Experimental: The following dosage regimens (as nebulizer loaded doses) were evaluated: 120 mg QD (daily); 240 mg QD (daily); and 240 mg BID (twice daily).
Efficacy endpoints including clinical endpoints, pulmonary function tests, and additional microbiological parameters were assessed as change from Day 1 to subsequent visits where the endpoint data was collected. Time to need for intravenous/oral/inhaled anti-pseudomonal antimicrobials were assessed from Day 1 until final visit using survival analysis. The primary population for efficacy analysis was the EE population, but efficacy endpoints were also analyzed using the MITT population.
Changes in FEV1 (forced expiratory volume in 1 second), FVC (forced vital capacity) and FEF 25-75 (forced expiratory flow 25-75%) from Day 1 to all subsequent visits were determined for patients. Tables 26 and 27 summarize the results for FEV1 measurements in EE and MITT populations, respectively. FIGS. 7 and 8 show graphs of percent change in FEV1 (L) and percent change in FEV1(L) vs. placebo, respectively, at Day 28 for the EET population treated with placebo, 120 mg QD, 240 mg QD, or 240 mg BID. […] Tables 28 and 29 summarize the results for predicted FEVI measurements in EE and MITT populations, respectively. Tables 30 and 31 summarize results for FEF 25-75 measurements in EE and MITT populations, respectively.

[1] = EE, 240 mg BID, Day 1 (baseline)
[2] = Day 1 (baseline), combined 240 mg QD and BID
[3] = Day 14, combined 240 mg QD and BID
[4] = Day 28, combined 240 mg QD and BID
[5] = MITT, 240 mg BID, Day 1 (baseline)

C[C@H]1COc2c(N3CCN(C)CC3)c(F)cc3c(=O)c(C(=O)O)cn1c23 [Levofloxacin, levofloxacin]
FEF 25-75, Median (EE population, Day 28, combined 240 mg QD and BID): 0.97 | FEF 25-75, Median (EE, 120 mg QD, Day 1): 0.98 | FEV1, median (EE, 120 mg QD, Day 1): 1.87 L | FEF 25-75, Median (EE, 120 mg QD, Day 28): 1.03 | FEV1, median (EE, 120 mg QD, Day 28): 1.91 L | Increase in FEF 25-75 (EE, 120 mg QD): approximately 5% | Increase in FEV1 (EE, 120 mg QD): approximately 2% | FEF 25-75, Median [1]: 0.68 | FEV1, median [1]: 1.70 L | FEF 25-75, Median (EE, 240 mg BID, Day 28): 0.78 | FEV1, median (EE, 240 mg BID, Day 28): 1.79 L | Increase in FEF 25-75 (EE, 240 mg BID): approximately 15% | Increase in FEV1 (EE, 240 mg BID): approximately 5% | FEF 25-75, Median (EE, 240 mg QD, Day 1): 1.10 | FEV1, median (EE, 240 mg QD, Day 1): 2.02 L | FEF 25-75, Median (EE, 240 mg QD, Day 28): 1.15 | FEV1, median (EE, 240 mg QD, Day 28): 2.15 L | Increase in FEF 25-75 (EE, 240 mg QD): approximately 4% | Increase in FEV1 (EE, 240 mg QD): approximately 6% | Largest difference for FEF 25-75, placebo vs levofloxacin (EE, Day 14): 0.25 L | Largest difference for FEV1, placebo vs levofloxacin (EE, Day 14): 0.16 L | Largest difference for FEF 25-75, placebo vs levofloxacin (EE, Day 28): 0.21 L | Largest difference for FEV1, placebo vs levofloxacin (EE, Day 28): 0.24 L | FEV1, Day 1, Mean (120 mg QD): 1.95 | FEV1, Day 1, Median (120 mg QD): 1.83 | FEV1, Day 14, Mean (120 mg QD): 1.97 | FEV1, Day 14, Median (120 mg QD): 1.79 | FEV1, Day 28, Mean (120 mg QD): 1.99 | FEV1, Day 28, Median (120 mg QD): 1.83 | FEV1, Percent Change from Baseline to Day 14, Mean (120 mg QD): 1.87% | FEV1, Percent Change from Baseline to Day 14, Median (120 mg QD): 0.56% | FEV1, Percent Change from Baseline to Day 28, Mean (120 mg QD): 1.92% | FEV1, Percent Change from Baseline to Day 28, Median (120 mg QD): 1.60% | FEV1, Day 1, Mean (240 mg BID): 1.88 | FEV1, Day 1, Median (240 mg BID): 1.70 | FEV1, Day 14, Mean (240 mg BID): 2.04 | FEV1, Day 14, Median (240 mg BID): 1.90 | FEV1, Day 28, Mean (240 mg BID): 1.93 | FEV1, Day 28, Median (240 mg BID): 1.82 | FEV1, Percent Change from Baseline to Day 14, Mean (240 mg BID): 9.34% | FEV1, Percent Change from Baseline to Day 14, Median (240 mg BID): 7.51% | FEV1, Percent Change from Baseline to Day 28, Mean (240 mg BID): 5.93% | FEV1, Percent Change from Baseline to Day 28, Median (240 mg BID): 3.55% | FEV1, Day 1, Mean (240 mg QD): 2.05 | FEV1, Day 1, Median (240 mg QD): 1.90 | FEV1, Day 14, Mean (240 mg QD): 2.12 | FEV1, Day 14, Median (240 mg QD): 2.04 | FEV1, Day 28, Mean (240 mg QD): 2.09 | FEV1, Day 28, Median (240 mg QD): 2.10 | FEV1, Percent Change from Baseline to Day 14, Mean (240 mg QD): 3.81% | FEV1, Percent Change from Baseline to Day 14, Median (240 mg QD): 1.92% | FEV1, Percent Change from Baseline to Day 28, Mean (240 mg QD): 2.35% | FEV1, Percent Change from Baseline to Day 28, Median (240 mg QD): 1.28% | FEV1, Day 1, Mean (Combined 240 mg QD and BID): 1.96 | FEV1, Day 1, Median (Combined 240 mg QD and BID): 1.80 | FEV1, Day 14, Mean (Combined 240 mg QD and BID): 2.08 | FEV1, Day 14, Median (Combined 240 mg QD and BID): 1.97 | FEV1, Day 28, Mean (Combined 240 mg QD and BID): 2.01 | FEV1, Day 28, Median (Combined 240 mg QD and BID): 1.95 | FEV1, Percent Change from Baseline to Day 14, Mean (Combined 240 mg QD and BID): 6.61% | FEV1, Percent Change from Baseline to Day 14, Median (Combined 240 mg QD and BID): 3.94% | FEV1, Percent Change from Baseline to Day 28, Mean (Combined 240 mg QD and BID): 4.14% | FEV1, Percent Change from Baseline to Day 28, Median (Combined 240 mg QD and BID): 2.50% | % predicted FEV1, Mean (Day 1 (baseline), 120 mg QD): 52.9% | % predicted FEV1, Median (Day 1 (baseline), 120 mg QD): 53.0% | % predicted FEV1, Mean (Day 1 (baseline), 240 mg BID): 48.8% | % predicted FEV1, Median (Day 1 (baseline), 240 mg BID): 46.0% | % predicted FEV1, Mean (Day 1 (baseline), 240 mg QD): 55.4% | % predicted FEV1, Median (Day 1 (baseline), 240 mg QD): 56.0% | % predicted FEV1, Mean [2]: 52.0% | % predicted FEV1, Median [2]: 51.0% | % predicted FEV1, Mean (Day 14, 120 mg QD): 53.9% | % predicted FEV1, Median (Day 14, 120 mg QD): 53.0% | % predicted FEV1, Mean (Day 14, 240 mg BID): 52.1% | % predicted FEV1, Median (Day 14, 240 mg BID): 49.56% | % predicted FEV1, Mean (Day 14, 240 mg QD): 57.1% | % predicted FEV1, Median (Day 14, 240 mg QD): 61.0% | % predicted FEV1, Mean [3]: 54.6% | % predicted FEV1, Median [3]: 52.0% | % predicted FEV1, Mean (Day 28, 120 mg QD): 54.1% | % predicted FEV1, Median (Day 28, 120 mg QD): 50.0% | % predicted FEV1, Mean (Day 28, 240 mg BID): 50.8% | % predicted FEV1, Median (Day 28, 240 mg BID): 49.0% | % predicted FEV1, Mean (Day 28, 240 mg QD): 56.7% | % predicted FEV1, Median (Day 28, 240 mg QD): 54.0% | % predicted FEV1, Mean [4]: 53.8% | % predicted FEV1, Median [4]: 53.5% | FEF 25-75, Median [5]: 0.68 | FEV1, median [5]: 1.70 L | FEF 25-75, Median (MITT, 240 mg BID, Day 28): 0.82 | FEV1, median (MITT, 240 mg BID, Day 28): 1.82 L | Increase in FEF 25-75 (MITT, 240 mg BID): approximately 20% | Increase in FEV1 (MITT, 240 mg BID): approximately 7% | FEF 25-75, Median (MITT, 240 mg QD, Day 1): 1.09 | FEV1, median (MITT, 240 mg QD, Day 1): 1.90 L | FEF 25-75, Median (MITT, 240 mg QD, Day 28): 1.12 | FEV1, median (MITT, 240 mg QD, Day 28): 2.10 L | Increase in FEF 25-75 (MITT, 240 mg QD): approximately 3% | Increase in FEV1 (MITT, 240 mg QD): approximately 10% | Largest difference for FEF 25-75, placebo vs levofloxacin (MITT, Day 14): 0.27 L | Largest difference for FEV1, placebo vs levofloxacin (MITT, Day 14): 0.12 L | Largest difference for FEF 25-75, placebo vs levofloxacin (MITT, Day 28): 0.21 L | Largest difference for FEV1, placebo vs levofloxacin (MITT, Day 28): 0.25 L
